Reference: US7385051B2, “Fluorescent N2,N3-etheno-purine (2′-deoxy) riboside derivatives and uses thereof” (Bar-llan University, priority 2005, dated 2008)
Where “and” joins values, the source holds several entries; their conditions need not be identical. Identical values can stand only once. Entries after “also recorded” stand apart in the source; their conditions may differ. Like-named read-outs stand apart in the source and are kept apart here. Values belong to the compound of their own block, whether it stands above or below them.

Legend:
[1] = cited from earlier work
[2] = cited from earlier work; remark: listed apart in the source
[3] = Emission (fluorescence) spectra and quantum yield, quinine sulfate as reference; assay type: physicochemical; design: Emission λmax: unit not given here; details: for Emission λmax / φ (quantum yield): 5.04 × 10^−5 M
Description: Emission spectra of compounds 4 and 23 were measured using an Aminco-Bowman series 2 Luminescence Spectrometer. Measurement conditions included: 740-750 V sensitivity, and a 4 or 2 nm slit in the emission spectra for aqueous or organic solutions, respectively. Emission spectra were corrected by the subtraction of the medium's emission spectrum. Spectra were determined in dilute HCl or NaOH solutions in the pH range of 1.6-12.3 or at pH 7. The concentration of the samples of 4 was of the order of 4.85×10^−5 M for aqueous and organic solutions and of 23 in the order of 5.04×10^−5 M for aqueous solutions. All organic solvents were freshly distilled prior to emission measurements. Measurements of the emission of the nucleoside analogue were conducted with subtraction of the solvent's emission. The quantum yield of each compound was calculated from the observed absorbance at 290 nm and the area of the fluorescence emission band. Quinine sulfate was used as reference compound assuming a quantum yield value of 0.55 (Andrew et al., 1988).

[4] = Absorption spectra (UV-Visible) in aqueous solution at several pH values; assay type: physicochemical; design: Absorption λmax: unit not given here; details: for Absorption λmax: 5.04 × 10^−5 M
Description: Absorption spectra of compounds 4 and 23 were measured using a Varian array-1E UV-Visible spectrometer. Spectra were determined in dilute HCl or NaOH solutions in the pH range of 1.6-12.3 or at pH 7.0. The concentration of the samples of 4 in aqueous solutions and in organic solvents was of the order of 4.85×10^−5 M and of 23 in aqueous solutions was of the order of 5.04×10^−5 M.

rat brain P2Y1-receptor = target: T1, rat brain P2Y1-receptor (Rattus norvegicus, UniProt P49651); assay: Agonist-induced Ca2+ release in HEK 293 cells stably transfected with P2Y1-receptor; assay type: cell-based; details: HEK 293 cells with rat brain P2Y1-receptor
T1 construct: expressed in transfected cells
T1 sequence (P49651 whole entry): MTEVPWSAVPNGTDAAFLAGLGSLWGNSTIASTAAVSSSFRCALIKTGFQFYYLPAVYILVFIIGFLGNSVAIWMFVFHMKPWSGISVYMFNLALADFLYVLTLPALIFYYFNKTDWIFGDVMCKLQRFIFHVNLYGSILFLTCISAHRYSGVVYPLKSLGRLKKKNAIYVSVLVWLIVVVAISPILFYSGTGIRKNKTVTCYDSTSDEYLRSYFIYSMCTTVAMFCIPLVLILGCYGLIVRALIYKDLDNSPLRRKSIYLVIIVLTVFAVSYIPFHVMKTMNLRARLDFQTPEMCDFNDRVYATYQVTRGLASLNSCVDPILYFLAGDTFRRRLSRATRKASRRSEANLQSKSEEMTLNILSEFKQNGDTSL
Excerpt: To examine the efficacy of analogues 30a,d in a functional assay, we tested them by the agonist-induced Ca^2+ release in HEK 293 cells stably transfected with rat brain P2Y1-receptor (FIG. 6) (Voehringer et al., 2000). […] However, a benzyl substitution at N^6 of 30a, as in analogue 30d, reduced the ligand's potency. […] EC50 value in the range of 10^−6 M.

[5] = in water, excitation at 290 nm (4), 330 nm (17)

Compound: OC[C@H]1O[C@@H](n2cnc3c2ncn2ccnc32)[C@H](O)[C@@H]1O [Compound 1, N1,N^6-etheno-adenosine]
Emission λmax ([1]; Secrist et al., 1972, Thomas and Leonard, 1976): 415 nm

Compound: O=c1nc2[nH]ccn2c2c1ncn2[C@@H]1O[C@H](CO)[C@@H](O)[C@H]1O [Compound 3, N^2,N3-etheno-guanosine]
pKa ([2]; literature (Glemarec et al., 1991 for the ε-G compounds)): 2.11 | pKa of N7 ([2]; literature value as quoted): 5.20 | Maximum emission ([1]; excitation at 280 nm, Sattsangi et al., 1977): 410 nm | Emission maximum in water ([1]; in water, Kusmierek et al., 1987): 410 nm

Compound: O=c1c2ncn(C3O[C@H](CO)[C@@H](O)[C@H]3O)c2[nH]c2nccn12 (stereo partly drawn) [Compound 5]
Fluorescence ([1]; Sattsangi et al., 1977, Kusmierek et al., 1992): non-fluorescent

Compound: Nc1c2ncn(C3CC(O)C(CO)O3)c2nc2nccn12 (stereo not drawn) [Compound 25, N1,N^2-etheno-2′-deoxy-adenosine]
φ290 ([3]; 290 nm, pH 7.0): 0.07 | ε (238 nm) ([4]; pH 7.0, 238 nm): 4.12×10^3 | ε (308 nm) ([4]; pH 7.0, 308 nm): 1.02×10^3

Further lines, with some results ahead:

Maximum emission (λmax) in water [3, 5]: 520 nm and 518 nm | Quantum yield (φ) in water [3, 5]: 0.15 | Emission λmax ([3]; pH 1.6): 492 and 516 | φ (quantum yield) ([3]; pH 1.6): 0.037 | Emission λmax ([3]; pH 7.0): 494 and 518 | φ (quantum yield) ([3]; pH 7.0): 0.152 | Emission λmax ([3]; pH 12.3): 494 and 520 | φ (quantum yield) ([3]; pH 12.3): 0.067 | Absorption bands in water ([4]; in water): 227 nm and 247 nm and 307 nm and 345 nm | Absorption λmax ([4]; pH 1.6): 227 and 243 and 301 and 331 | εd ([4]; pH 1.6, band at λmax 227): 16.52 × 10^3 | εd ([4]; pH 1.6, band at λmax 243): 13.57 × 10^3 | εd ([4]; pH 1.6, band at λmax 301): 7.39 × 10^3 | εd ([4]; pH 1.6, band at λmax 331): 7.13 × 10^3 | Absorption λmax ([4]; pH 7.0): 231 and 247 and 307 and 345 | εd ([4]; pH 7.0, band at λmax 231): 16.09 × 10^3 | εd ([4]; pH 7.0, band at λmax 247): 13.25 × 10^3 | εd ([4]; pH 7.0, band at λmax 307): 7.07 × 10^3 | εd ([4]; pH 7.0, band at λmax 345): 2.90 × 10^3 | Absorption λmax ([4]; pH 12.3): 233 and 307 | εd ([4]; pH 12.3, band at λmax 233): 19.29 × 10^3 | εd ([4]; pH 12.3, band at λmax 307): 5.95 × 10^3
Compound: CSc1nc2nccn2c2c1ncn2C1OC(CO)C(O)C1O (stereo not drawn) [Compound 17, N^2,N3-etheno-6-methylthio-purine riboside]

EC50 (rat brain P2Y1-receptor; Ca^2+ release): ~1000 nM
Compound: O=P(O)(O)OP(=O)(O)OP(=O)(O)OCC1OC(n2cnc3c(NCc4ccccc4)nc4nccn4c32)C(O)C1O (stereo not drawn) [Compound 30d, N^6-Benzyl-N^2,N3-ethenoadenosine-5′-triphosphate]
Potency at P2Y1-R compared to ATP / 30a (rat brain P2Y1-receptor): reduction by one order of magnitude; also recorded: significant reduction of the affinities
